{"source": "BindingDB's records for doi:10.1021/acs.jmedchem.1c00920", "about": "(Astrazeneca, 2021)", "data": [{"molecular_target": "Tyrosine-protein kinase Mer (Homo sapiens) (UniProt Q12866)", "sequence (Q12866 whole entry, looked up)": "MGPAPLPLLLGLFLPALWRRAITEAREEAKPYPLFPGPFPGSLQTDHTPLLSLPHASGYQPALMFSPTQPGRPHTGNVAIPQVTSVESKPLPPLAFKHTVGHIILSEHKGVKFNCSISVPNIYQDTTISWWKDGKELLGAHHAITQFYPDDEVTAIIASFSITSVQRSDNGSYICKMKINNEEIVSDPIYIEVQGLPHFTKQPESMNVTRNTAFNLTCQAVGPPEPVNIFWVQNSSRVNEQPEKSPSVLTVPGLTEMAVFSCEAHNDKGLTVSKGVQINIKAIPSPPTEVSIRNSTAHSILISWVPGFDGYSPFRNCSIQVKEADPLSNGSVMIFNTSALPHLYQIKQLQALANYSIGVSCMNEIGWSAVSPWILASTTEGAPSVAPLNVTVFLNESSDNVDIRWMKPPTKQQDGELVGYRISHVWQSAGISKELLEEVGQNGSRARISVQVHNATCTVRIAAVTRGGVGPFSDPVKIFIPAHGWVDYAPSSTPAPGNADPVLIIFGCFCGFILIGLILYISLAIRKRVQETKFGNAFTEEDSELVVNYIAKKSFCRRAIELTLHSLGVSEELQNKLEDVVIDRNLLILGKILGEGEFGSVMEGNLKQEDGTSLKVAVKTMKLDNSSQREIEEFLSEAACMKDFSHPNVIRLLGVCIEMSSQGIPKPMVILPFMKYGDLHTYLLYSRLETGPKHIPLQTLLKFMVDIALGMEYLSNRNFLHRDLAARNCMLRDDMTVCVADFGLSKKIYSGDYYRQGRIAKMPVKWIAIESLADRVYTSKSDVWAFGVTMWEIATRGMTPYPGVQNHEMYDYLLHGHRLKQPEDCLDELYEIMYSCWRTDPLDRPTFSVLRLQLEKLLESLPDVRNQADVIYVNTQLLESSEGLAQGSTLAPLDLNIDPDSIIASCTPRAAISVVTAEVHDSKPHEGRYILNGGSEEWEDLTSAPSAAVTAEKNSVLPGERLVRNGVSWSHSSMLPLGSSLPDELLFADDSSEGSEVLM", "test": "Inhibition of FLAG-tagged MER (unknown origin) transfected in Cos-7cells assessed as phosphorylation level incubated for 1 hr by ELISA", "units": {"IC50": "nM"}, "values": [{"molecule": "Cc1cc(-c2c(C)nn(C)c2C)ccc1-c1nnc(N(C)Cc2ccc3ncc(-c4cnn(C)c4)n3c2)o1", "IC50": 13}, {"molecule": "Cc1cc(-c2c(C)nn(C)c2C)ccc1-c1nnc(N(C)Cc2ccc3ncc(C(=O)N(C)C)n3c2)o1", "IC50": 32}, {"molecule": "Cc1cc(-c2c(C)nn(C)c2C)ccc1-c1nnc(N(C)Cc2ccc3nccn3c2)o1", "IC50": 32}, {"molecule": "Cc1cc(-c2c(C)nc(C)n2C)ccc1-c1nnc(N(C)Cc2ccc3nccn3c2)o1", "IC50": 501}, {"molecule": "CN1CCN(Cc2ccc(-c3ccc(CO[C@H]4CCC[C@@H]4NC(=O)c4cc(-c5cnn(C)c5)cnc4N)cc3)cc2)CC1", "note": "[US10125118, Example 172]", "IC50": 7.9}, {"molecule": "Cc1cc(-c2c(C#N)nn(C)c2C)ccc1-c1nnc(N(C)Cc2ccc3nccn3c2)o1", "IC50": 316}, {"molecule": "COc1cc(-c2c(C)nn(C)c2C)ccc1-c1nnc(N(C)Cc2ccc3nccn3c2)o1", "IC50": 501}, {"molecule": "Cc1cc(-c2c(C)nn(C)c2C)cnc1-c1nnc(N(C)Cc2ccc3ncc(-c4cccc(CN(C)C)c4)n3c2)o1", "IC50": 32}, {"molecule": "Cc1cc(-c2cnn(C)c2C)ccc1-c1nnc(N(C)Cc2ccc3nccn3c2)o1", "IC50": 79}, {"molecule": "Cc1cc(-c2c(C)nn(C)c2C)cnc1-c1nnc(N(C)Cc2ccc3ncc(-c4cnn(CCN(C)C)c4)n3c2)o1", "IC50": 200}, {"molecule": "Cc1nc(-c2c(C)nn(C)c2C)ccc1-c1nnc(N(C)Cc2ccc3nccn3c2)o1", "IC50": 1580}, {"molecule": "Cc1cc(-c2c(C)nn(C)c2C)cnc1-c1nnc(N(C)Cc2ccc3ncc(-c4ccc(CN(C)C)nc4)n3c2)o1", "IC50": 100}, {"molecule": "Cc1cc(-c2c(C)nn(C)c2C)ccc1-c1nnc(N(C)Cc2ccc3ncc(-c4ccccc4)n3c2)o1", "IC50": 32}, {"molecule": "Cc1cc(-c2c(C)nn(C)c2C)cnc1-c1nnc(N(C)Cc2ccc3ncc(-c4ccc(CN(C)C)cn4)n3c2)o1", "IC50": 13}, {"molecule": "Cc1cc(-c2c(C)n[nH]c2C)ccc1-c1nnc(N(C)Cc2ccc3nccn3c2)o1", "IC50": 2510}, {"molecule": "Cc1nn(C)c(C)c1-c1ccc(-c2nnc(N(C)Cc3ccc4nccn4c3)o2)cc1", "IC50": 200}, {"molecule": "Cc1cc(-c2c(C)nn(C)c2C)cnc1-c1nnc(N(C)Cc2ccc3ncc(-c4ccc(CN(C)C)cc4)n3c2)o1", "IC50": 16}, {"molecule": "Cc1cc(-c2c(C)nn(C)c2C)ccc1-c1nnc(N(C)Cc2ccc3ncc(C4CCN(C)CC4)n3c2)o1", "IC50": 251}, {"molecule": "Cc1cc(-c2c(C)nn(C)c2C)ccc1-c1nnc(N(C)Cc2ccc3ncc(-c4cnn(CCN(C)C)c4)n3c2)o1", "IC50": 20}, {"molecule": "Cc1nn(C)c(C)c1-c1ccc(-c2nnc(N(C)Cc3ccc4nccn4c3)o2)c(F)c1", "IC50": 316}, {"molecule": "Cc1cc(-c2c(C)nn(C)c2C)cnc1-c1nnc(N(C)Cc2ccc3nccn3c2)o1", "IC50": 794}]}]}
